# Active and inactive are the calls of the source. The calls are words filed in the database; no cut-off is given here.
# Assays:
# ACHN = test: Cytotoxicity against human ACHN cells assessed as inhibition of cell growth incubated for 48 hrs by SRB assay; format: functional, cell-based
# DU-145 = test: Cytotoxicity against human DU-145 cells assessed as inhibition of cell growth incubated for 48 hrs by SRB assay; format: functional, cell-based
# BT-549 = test: Cytotoxicity against human BT-549 cells assessed as inhibition of cell growth incubated for 48 hrs by SRB assay; format: functional, cell-based
# Malme-3M = test: Cytotoxicity against human Malme-3M cells assessed as inhibition of cell growth incubated for 48 hrs by SRB assay; format: functional, cell-based
# CAKI-1 = test: Cytotoxicity against human CAKI-1 cells assessed as inhibition of cell growth incubated for 48 hrs by SRB assay; format: functional, cell-based
# NCI-H460 = test: Cytotoxicity against human NCI-H460 cells assessed as inhibition of cell growth incubated for 48 hrs by SRB assay; format: functional, cell-based
# A549 = test: Cytotoxicity against human A549 cells assessed as inhibition of cell growth incubated for 48 hrs by SRB assay; format: functional, cell-based
# M14 = test: Cytotoxicity against human M14 cells assessed as inhibition of cell growth incubated for 48 hrs by SRB assay; format: functional, cell-based
# SR = test: Cytotoxicity against human SR cells assessed as inhibition of cell growth incubated for 48 hrs by SRB assay; format: functional, cell-based
# SN12C = test: Cytotoxicity against human SN12C cells assessed as inhibition of cell growth incubated for 48 hrs by SRB assay; format: functional, cell-based
# SNB-19 = test: Cytotoxicity against human SNB-19 cells assessed as inhibition of cell growth incubated for 48 hrs by SRB assay; format: functional, cell-based
# NCI-H226 = test: Cytotoxicity against human NCI-H226 cells assessed as inhibition of cell growth incubated for 48 hrs by SRB assay; format: functional, cell-based
# OVCAR-3 = test: Cytotoxicity against human OVCAR-3 cells assessed as inhibition of cell growth incubated for 48 hrs by SRB assay; format: functional, cell-based
# HT-29 = test: Cytotoxicity against human HT-29 cells assessed as inhibition of cell growth incubated for 48 hrs by SRB assay; format: functional, cell-based
# NCI/ADR-RES = test: Cytotoxicity against human NCI/ADR-RES cells assessed as inhibition of cell growth incubated for 48 hrs by SRB assay; format: functional, cell-based
# OVCAR-4 = test: Cytotoxicity against human OVCAR-4 cells assessed as inhibition of cell growth incubated for 48 hrs by SRB assay; format: functional, cell-based
# HCC 2998 = test: Cytotoxicity against human HCC 2998 cells assessed as inhibition of cell growth incubated for 48 hrs by SRB assay; format: functional, cell-based
# RPMI-8226 = test: Cytotoxicity against human […] cells assessed as inhibition of cell growth incubated for 48 hrs by SRB assay; format: functional, cell-based
# RXF 393 = test: Cytotoxicity against human RXF 393 cells assessed as inhibition of cell growth incubated for 48 hrs by SRB assay; format: functional, cell-based
# LOX IMVI = test: Cytotoxicity against human LOX IMVI cells assessed as inhibition of cell growth incubated for 48 hrs by SRB assay; format: functional, cell-based
# SNB-75 = test: Cytotoxicity against human SNB-75 cells assessed as inhibition of cell growth incubated for 48 hrs by SRB assay; format: functional, cell-based
# MDA-MB-231 = test: Cytotoxicity against human MDA-MB-231 cells assessed as inhibition of cell growth incubated for 48 hrs by SRB assay; format: functional, cell-based
# HCT-116 = test: Cytotoxicity against human HCT-116 cells assessed as inhibition of cell growth incubated for 48 hrs by SRB assay; format: functional, cell-based
# [1] = Selectivity index, ratio of CC50 for african green monkey Vero E6 cells to IC50 for antiviral activity against SARS-CoV-2 NRC-03-nhCoV infected in african green monkey Vero E6 cells; format: toxicity, Vero C1008; settings: read-out: Ratio CC50/IC50
# SK-MEL-2 = test: Cytotoxicity against human SK-MEL-2 cells assessed as inhibition of cell growth incubated for 48 hrs by SRB assay; format: functional, cell-based
# IGROV-1 = test: Cytotoxicity against human IGROV-1 cells assessed as inhibition of cell growth incubated for 48 hrs by SRB assay; format: functional, cell-based
# TK-10 = test: Cytotoxicity against human TK-10 cells assessed as inhibition of cell growth incubated for 48 hrs by SRB assay; format: functional, cell-based
# SK-MEL-5 = test: Cytotoxicity against human SK-MEL-5 cells assessed as inhibition of cell growth incubated for 48 hrs by SRB assay; format: functional, cell-based
# NCI-H522 = test: Cytotoxicity against human NCI-H522 cells assessed as inhibition of cell growth incubated for 48 hrs by SRB assay; format: functional, cell-based
# KM12 = test: Cytotoxicity against human KM12 cells assessed as inhibition of cell growth incubated for 48 hrs by SRB assay; format: functional, cell-based
# Hs578Bst = test: Cytotoxicity against human Hs578Bst cells assessed as inhibition of cell growth incubated for 48 hrs by SRB assay; format: functional, cell-based
# CCRF-CEM = test: Cytotoxicity against human CCRF-CEM cells assessed as inhibition of cell growth incubated for 48 hrs by SRB assay; format: functional, cell-based
# SF-268 = test: Cytotoxicity against human SF-268 cells assessed as inhibition of cell growth incubated for 48 hrs by SRB assay; format: functional, cell-based
# K562 = test: Cytotoxicity against human K562 cells assessed as inhibition of cell growth incubated for 48 hrs by SRB assay; format: functional, cell-based
# HL-60(TB) = test: Cytotoxicity against human HL-60(TB) cells assessed as inhibition of cell growth incubated for 48 hrs by SRB assay; format: functional, cell-based
# OVCAR-8 = test: Cytotoxicity against human OVCAR-8 cells assessed as inhibition of cell growth incubated for 48 hrs by SRB assay; format: functional, cell-based
# MDA-MB-435 = test: Cytotoxicity against human MDA-MB-435 cells assessed as inhibition of cell growth incubated for 48 hrs by SRB assay; format: functional, cell-based
# [2] = Cytotoxicity against African green monkey Vero E6 cells measured after 72 hrs by MTT assay; format: toxicity, cell-based, Vero C1008; settings: chlorocebus sabaeus
# T47D = test: Cytotoxicity against human T47D cells assessed as inhibition of cell growth incubated for 48 hrs by SRB assay; format: functional, cell-based
# HOP-92 = test: Cytotoxicity against human HOP-92 cells assessed as inhibition of cell growth incubated for 48 hrs by SRB assay; format: functional, cell-based
# SK-OV-3 = test: Cytotoxicity against human SK-OV-3 cells assessed as inhibition of cell growth incubated for 48 hrs by SRB assay; format: functional, cell-based
# MCF7 = test: Cytotoxicity against human MCF7 cells assessed as inhibition of cell growth incubated for 48 hrs by SRB assay; format: functional, cell-based
# COLO 205 = test: Cytotoxicity against human COLO 205 cells assessed as inhibition of cell growth incubated for 48 hrs by SRB assay; format: functional, cell-based
# NCI-H23 = test: Cytotoxicity against human NCI-H23 cells assessed as inhibition of cell growth incubated for 48 hrs by SRB assay; format: functional, cell-based
# SARS-CoV-2 = test: Antiviral activity against SARS-CoV-2 NRC-03-nhCoV infected in african green monkey Vero E6 cells assessed as inhibition of virus-induced cytopathic effect measured after 72 hrs by crystal violet staining based assay; format: functional, organism-based; settings: Severe acute respiratory syndrome coronavirus 2, NRC-03-nhCoV, Vero C1008, 72 h
# A498 = test: Cytotoxicity against human A498 cells assessed as inhibition of cell growth incubated for 48 hrs by SRB assay; format: functional, cell-based
smiles,measurement,setting,value
Cn1c(=O)c2c(ncn2CCC(=O)Nc2ccc(S(=O)(=O)Nc3ncccn3)cc2)n(C)c1=O,Activity,ACHN,inactive
same,Activity,DU-145,inactive
same,Activity,BT-549,inactive
same,Activity,Malme-3M,inactive
same,Activity,CAKI-1,inactive
same,Activity,NCI-H460,inactive
same,Activity,A549,inactive
same,Activity,M14,inactive
same,Activity,SR,inactive
same,Activity,SN12C,inactive
same,Activity,SNB-19,inactive
same,Activity,NCI-H226,inactive
same,Activity,OVCAR-3,inactive
same,Activity,HT-29,inactive
same,Activity,NCI/ADR-RES,inactive
same,Activity,OVCAR-4,inactive
same,Activity,HCC 2998,inactive
same,Activity,RPMI-8226,inactive
same,Activity,RXF 393,inactive
same,Activity,LOX IMVI,inactive
same,Activity,SNB-75,inactive
same,Activity,MDA-MB-231,inactive
same,Activity,HCT-116,inactive
same,selectivity ratio,[1],103
same,Activity,SK-MEL-2,inactive
same,Activity,IGROV-1,inactive
same,Activity,TK-10,inactive
same,Activity,SK-MEL-5,inactive
same,Activity,NCI-H522,inactive
same,Activity,KM12,inactive
same,Activity,Hs578Bst,inactive
same,Activity,CCRF-CEM,inactive
same,Activity,SF-268,inactive
same,Activity,K562,inactive
same,Activity,HL-60(TB),inactive
same,Activity,OVCAR-8,inactive
same,Activity,MDA-MB-435,inactive
same,CC50 at 72 h,[2],3940 µM
same,Activity,T47D,inactive
same,Activity,HOP-92,inactive
same,Activity,SK-OV-3,inactive
same,Activity,MCF7,inactive
same,Activity,COLO 205,inactive
same,Activity,NCI-H23,inactive
same,IC50,SARS-CoV-2,38.4 µM
same,Activity,A498,inactive
Cn1cnc2c1c(=O)n(CC(=O)Nc1ccc(S(=O)(=O)Nc3ncccn3)cc1)c(=O)n2C,Activity,ACHN,inactive
same,Activity,DU-145,inactive
same,Activity,BT-549,inactive
same,Activity,Malme-3M,inactive
same,Activity,CAKI-1,inactive
same,Activity,NCI-H460,inactive
same,Activity,A549,inactive
same,Activity,M14,inactive
same,Activity,SR,inactive
same,Activity,SN12C,inactive
same,Activity,SNB-19,inactive
same,Activity,NCI-H226,inactive
same,Activity,OVCAR-3,inactive
same,Activity,HT-29,inactive
same,Activity,NCI/ADR-RES,inactive
same,Activity,OVCAR-4,inactive
same,Activity,HCC 2998,inactive
same,Activity,RPMI-8226,inactive
same,Activity,RXF 393,inactive
same,Activity,LOX IMVI,inactive
same,Activity,SNB-75,inactive
same,Activity,MDA-MB-231,inactive
same,Activity,HCT-116,inactive
same,selectivity ratio,[1],129
same,Activity,SK-MEL-2,inactive
same,Activity,IGROV-1,inactive
same,Activity,TK-10,inactive
same,Activity,SK-MEL-5,inactive
same,Activity,NCI-H522,inactive
same,Activity,KM12,inactive
same,Activity,Hs578Bst,inactive
same,Activity,CCRF-CEM,inactive
same,Activity,SF-268,inactive
same,Activity,K562,inactive
same,Activity,HL-60(TB),inactive
same,Activity,OVCAR-8,inactive
same,Activity,MDA-MB-435,inactive
same,CC50 at 72 h,[2],1140 µM
same,Activity,T47D,inactive
same,Activity,HOP-92,inactive
same,Activity,SK-OV-3,inactive
same,Activity,MCF7,inactive
same,Activity,COLO 205,inactive
same,Activity,NCI-H23,inactive
same,IC50,SARS-CoV-2,8.86 µM
same,Activity,A498,inactive
